Laboratory results published in patent US7906486B2, “Method of treating or preventing tissue deterioration, injury or damage due to disease of mucosa” (SciClone Pharmaceuticals, Inc., priority 2007, dated 2011).

Tested on: oral mucositis induced by fractionated radiation (eight doses of 7.5 Gy, left buccal cheek pouch)
Experiment: Oral mucositis induced by fractionated radiation in hamsters, mucositis scoring (Example 3, SCI-03)
Format: in vivo, Syrian Golden Hamsters
Parameters: key: 0: Pouch completely healthy. No erythema or vasodilation.; 1: Light to severe erythema and vasodilation. No erosion of mucosa.; 2: Severe erythema and vasodilation. Erosion of superficial aspects of mucosa leaving denuded areas, but no frank ulceration. Decreased stippling of mucosa.; 3: Formation of off-white ulcers in one or more places. Ulcers may have a yellow/gray due to pseudomembrane. Cumulative size of ulcers should equal about ¼ of the pouch. Severe erythema and vasodilation.; 4: Cumulative seize of ulcers should equal about ½ of the pouch. Loss of pliability. Severe erythema and vasodilation.; 5: Virtually all of pouch is ulcerated. Loss of pliability (pouch can only partially be extracted from mouth)
Excerpt: The fractionated radiation model in hamsters, developed by the Principal Investigator, has proven to be an accurate, efficient and cost-effective technique to provide a preliminary evaluation of anti-mucositis compounds. In this model, hamsters receive 8 doses of 7.5 Gy to the left cheek pouch on days 0, 1, 2, 3, […], rather than the single dose of 40 Gy on day 0 that is used in acute radiation studies. The rationale for using this scheduling for the radiation is that it more closely resembles the clinical courses of radiotherapy given to cancer patients. The course of mucositis in this model is well defined and results in peak mucositis scores approximately 14-16 days following radiation. Mortality (generally from the side effects of anesthesia) in the fractionated radiation model is slightly higher than that seen in the acute radiation model and group sizes are increased (to 10 per group) to allow for this.
(§1) Forty (40) male Syrian Golden Hamsters were given eight doses of radiation of 7.5 Gy each directed to their left buccal cheek pouch on days 0, 1, 2, 3, 6, 7, 8 and 9. This was accomplished by anesthetizing the animals and everting the left buccal pouch, while protecting the rest of the animal's bodies with a lead shield. Test materials were given by sub-cutaneous injection once daily as detailed in Table 9. Mucositis was evaluated clinically starting on day 7, and continuing on alternate days until day 35. Test articles were given as outlined Table 9, Groups 1 and 2 were dosed from Day −1 to Day 29, Group 3 was dosed on the days of radiation only, Group 4 was dosed on the days between Day −15 and Day 29 on which no radiation is given (Day −1, Day 4, Day 5 and Day 10 to Day 29).
The effect on mucositis of each drug treatment compared to placebo was assessed according to the following parameters:
On each evaluation day, the number of animals with a blinded mucositis score of ≧3 in each drug treatment group was compared to the control group. Differences were compared on a cumulative basis and statistical significance was determined by chi-square analysis. Efficacy, in this analysis, is defined by a significant reduction in the number of days that a group of animals had ulcerations (scores ≧3) when compared to the control group.
For each evaluation day the scores of the control group were compared to those of the treated groups using non-parametric rank sum analysis. Treatment success was considered as a statistically significant lowering of scores in the treated group on 2 or more days from day 6 to day 28.
as §1, with “daily at 8:00 am” for “daily”, “9. […]” for “9. Mucositis was evaluated clinically starting on day 7, and continuing on alternate days until day 35.”, “2 was” for “2 were”, “radiation only (days 0-3 and days 6-10),” for “radiation only,”, “Day −1” for “Day −15”, “Day 4 to” for “Day 4,”
Radiation was generated with a Philips 160 kVp (kilovolt potential) (18.75-ma) X-ray source at a focal distance of 30 cm, with a 3.0 mm hardened Al filtration system. Irradiation was targeted to the left buccal pouch mucosa at a rate of 3.32 Gy/minute. […] Using this calibration, the energy received by each animal at each radiation dose was approximately 64.5 nC (nanoCoulombs) at each time point. Prior to irradiation, animals were anesthetized with an intraperitoneal injection of ketamine (160 mg/kg) and xylazine (8 mg/kg). The left buccal pouch was everted, fixed and isolated using a lead shield.
The mucositis score, weight change and survival were measured throughout the study as described above. […]

Measured: Mucositis score

N[C@H](CCC(=O)N[C@@H](Cc1c[nH]c2ccccc12)C(=O)O)C(=O)O [SCV-07, γ-D-glutamyl-L-tryptophan]
2: Group 2, day 13, individual animals (two score lines each) | Group 2, day 23, individual animals (two score lines each) | Group 2, day 25, individual animals (two score lines each) | Group 2, day 27, individual animals (two score lines each) | Group 2, day 31, individual animals (two score lines each) | Group 2, day 33, individual animals (two score lines each)
